From patent US10954269B2, “Anti-inflammatory tripeptides” (Dr. August Wolff Gmbh & Co. KG Arzneimittel, priority 2013, dated 2021)
Where a SMILES comes first, the peptide text is derived from it. [ ]: non-standard residue; d: D form. Tle = CC(C)(C)[C@H](N)C(=O)O; Aib = CC(C)(N)C(=O)O

How the values were obtained:
in vitro = conditions: human, tissue homogenate, % of the starting concentration
Method: (§4) Human skin samples (ear skin, umbilical skin and juvenile foreskin) are combined and frozen in liquid nitrogen and homogenized. The resulting human skin homogenate is transferred portionwise (50-70 mg) to Protein LoBind Tubes (2 ml) and stored at −32° C. until use. At the beginning of the stability study the human skin homogenate is thawed. An aqueous solution of the tripeptide compound (1500 μl) with or without 0.02% sodium azide (cpeptide=160 μg/ml) is added and the mixture is incubated at 32° C. Samples were taken at 0, 30, 100, 300 and 1000 minutes. 100 μl sample are diluted with 1900 μl methanol containing an internal standard and analyzed with HPLC-MS. All analyses are performed in triplicate.

[1] = human, tissue homogenate, 1000 min, 160 μg/ml
Method: as §4

[2] = system: human keratinocytes (HaCaT); assay: Gene expression of pro-inflammatory cytokines (RT-qPCR) in human keratinocytes (HaCaT); assay type: cell-based; conditions: HaCaT cells; PMA/Ionomycin; 10^−7 M, 10^−9 M and 10^−11 M
Text: (§1) Cells were activated with PMA/Ionomycin and treated with PBS, α-MSH, K(D)PT and Examples 3, 8 and 9, respectively, at a concentration of 10^−9 M. Values are normalized to β-actin and are shown relative to the gene expression in PBS-stimulated cells.
(§2) Primary T-cells were isolated from peripheral blood from healthy volunteers and from secondary lymphatic organs from naïve C57BL/6 mice, respectively. The cells were stimulated with phorbol-12-myristate-13-acetate (PMA)/Ionomycin and interferon-gamma (IFN-γ), respectively, for 48 h to activate the cells. The activated cells release pro-inflammatory cytokines. In parallel a human (HaCaT) keratinocyte cell line was activated with PMA/Ionomycin and IFN-γ, respectively, too. […] At the same time release of anti-inflammatory IL-10 was inhibited. Two days after addition of PMA/Ionomycin and IFN-γ, respectively, the induction of IL-1 secretion was determined in the supernatant for proving that the cells are activated. […] The anti-inflammatory properties of the tripeptides were determined 48 h and 72 h following stimulation. A 13-plex-system based FACS analysis was used for showing the reduced secretion of pro-inflammatory cytokines in the supernatant. Data for IL-1, IL-2, IL-6, IL-12p70 IL-17, IFN-γ and TNF-α are considered to be most relevant. Thus, analysis of the anti-inflammatory properties of the tripeptides is preferably based on the results obtained for these analytes. […] Using this method the gene expression of pro-inflammatory markers like IL-6, IL-17, IFN-γ and TNF-α was determined.
(§3) In a third experiment murine and human T cells and HaCaT cells were stimulated with PMA/Ionomycin and treated with Examples 14, 15, 16 and 17 at 10^−7 M, 10^−9 M and 10^−11 M. Cytokine concentrations (IFN-γ, IL-17 and IL-10 for T cells and IFN-γ for HaCat) were assessed in the supernatants using the Luminex technology. Expression of genes coding for Il-1β, IL-6 and TNF-α was determined. […] Moreover, concentrations of pro-inflammatory cytokines IFN-γ and IL-17 was reduced in the supernatants whereas the concentration of anti-inflammatory cytokine IL-10 was increased.

Balb/c mice = assay: Imiquimod-induced psoriasis in mice; assay type: in vivo; conditions: i.v.; for mRNA expression of IFN-γ and IL-36 in lesional skin: compared to vehicle control; for clinical score: day 9
Method: Psoriasis in Balb/c mice is induced by daily application of topical Imiquimod for 8 days. Animal are treated with the test items (topical or systemically). On day 9 the skin phenotype is characterized using a clinical score system (0=normal mouse skin; 1=mild reddening; 2=erythema; 3=erythema, swelling; 4=erythema, swelling, scaling; 5=erythema, swelling, scaling, (bloody) lesions). Skin is analyzed histologically. Lymph nodes are analyzed by flow cytometry and RT-qPCR. mRNA expression in lesional skin is analyzed by RT-qPCR. Cytokine concentrations in the serum are assessed using the Luminex technology.

primary murine T cells = assay: Gene expression of pro-inflammatory cytokines (RT-qPCR) in primary murine T cells; assay type: cell-based, C57BL/6 mice; conditions: PMA/Ionomycin, 10^−7 M, 10^−9 M and 10^−11 M
Text: as §1, §2, §3

primary human T cells = assay: Gene expression of pro-inflammatory cytokines (RT-qPCR) in primary human T cells; assay type: cell-based; conditions: PMA/Ionomycin, 10^−7 M, 10^−9 M and 10^−11 M
Text: as §1, §2, §3

primary human T-cells = assay: Cytokine secretion on protein level in activated primary human T-cells (13-plex FACS / Luminex, supernatant); assay type: cell-based; conditions: human T cells; PMA/Ionomycin; Luminex; all tested concentrations
In short: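 Cytokine protein in supernatant is read by multiplex FACS or Luminex. Tripeptide-treated HaCaT cells or blood-derived human T-cells are stimulated beforehand with PMA/Ionomycin or IFN-γ. The most relevant analytes are IL-1, IL-2, IL-6, IL-12p70, IL-17, IFN-γ and TNF-α, sampled 48 h and 72 h after stimulation.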

[3] = system: human keratinocyte cell line (HaCaT); assay: Cytokine secretion on protein level in activated human keratinocyte cell line HaCaT (13-plex FACS / Luminex, supernatant); assay type: cell-based; conditions: HaCaT; PMA/Ionomycin; Luminex; all tested concentrations
In short: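 First, T-cells are isolated from healthy donors' blood. Next, they and HaCaT keratinocytes are activated for 48 h with PMA/Ionomycin or IFN-γ in the presence of tripeptides. Finally, secreted cytokines are quantified in supernatants by 13-plex FACS at 48 and 72 h.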

primary murine T-cells = assay: Cytokine secretion on protein level in activated primary murine T-cells (13-plex FACS / Luminex, supernatant); assay type: cell-based, C57BL/6 mice; conditions: murine T cells; PMA/Ionomycin; Luminex; all tested concentrations
In short: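 T-cells from secondary lymphatic organs of naïve C57BL/6 mice, stimulated with PMA/Ionomycin or IFN-γ; supernatant cytokines measured by 13-plex FACS 48 h and 72 h after stimulation. In another run, PMA/Ionomycin-stimulated cells received compounds at 10^−7, 10^−9 and 10^−11 M, with IFN-γ, IL-17 and IL-10 measured by Luminex.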

remaining at 5 h, 160 μg/ml (in vitro) [%] | remaining at 1000 min, 160 μg/ml (in vitro) [%] | % of the starting concentration [1] [%] | Compound | expression of pro-inflammatory cytokines IL-1β, IL-6 and TNF-α on mRNA level [2] | concentrations of TNF-α and IL-17 in the serum (Balb/c mice) | epidermal thickness (Balb/c mice) | mRNA expression of IFN-γ and IL-36 in lesional skin (Balb/c mice) | clinical score (Balb/c mice) | expression of pro-inflammatory cytokines IL-1β, IL-6 and TNF-α on mRNA level (primary murine T cells) | expression of pro-inflammatory cytokines IL-1β, IL-6 and TNF-α on mRNA level (primary human T cells) | concentration of anti-inflammatory cytokine IL-10 in the supernatants (primary human T-cells) | concentrations of pro-inflammatory cytokines IFN-γ and IL-17 in the supernatants (primary human T-cells) | concentration of pro-inflammatory cytokine IFN-γ in the supernatants [3] | concentration of anti-inflammatory cytokine IL-10 in the supernatants (primary murine T-cells) | concentrations of pro-inflammatory cytokines IFN-γ and IL-17 in the supernatants (primary murine T-cells)
58 | – | – | CC(C)(C)[C@H](NC(=O)[C@@H]1CCCN1C(=O)[C@@H](N)CCCCN)C(=O)O [Example 9, H-(L)-Lys-(L)-Pro-(L)-t-butyl-Gly-OH] (H-Lys-Pro-[Tle]-OH) | – | – | – | – | – | – | – | – | – | – | – | –
– | 40 | 47 | CC(C)(NC(=O)[C@@H]1CCCN1C(=O)[C@@H](N)CCCCN)C(=O)O [Example 8, H-(L)-Lys-(L)-Pro-Aib-OH] (H-Lys-Pro-[Aib]-OH) | – | – | – | – | – | – | – | – | – | – | – | –
– | – | – | N^α-methyl-(D)-Phe-(L)-Pro-Aib-OH [Example 14] | reduced expression | reduced | reduced | reduced | reduced | reduced expression | reduced expression | increased | reduced | reduced | increased | reduced
– | – | – | N^α,N^α-dimethyl-(L)-Nle-(L)-Pro-Aib-OH [Example 16] | reduced expression | reduced | reduced | reduced | reduced | reduced expression | reduced expression | increased | reduced | reduced | increased | reduced
